Results as given in patent US8034797B2, “Triazene compounds for the treatment of cancer” (Trin Therapeutics GmbH, priority 2007, dated 2011).
Read-outs that look alike come from different tables or passages of the source.

How the values were obtained:
PAXF 1657 = assay: Xenograft tumour panel, PAXF 1657 (pancreas); format: in vivo, nude mice; details: 450-540 mg/kg ip twice weekly, 21 d (control ended early); n.s.
Method: (§1) Breast tumours (MAXF 401) were implanted subcutaneously into the rear members of the mice aged 10 weeks. The increase in the volume of the individual tumours was measured using microcallipers, and the size of the tumour was calculated according to the formula a*b^2/2 (where a is the largest diameter of the tumour and b is the vertical axis). When the tumour volume had increased to 80-120 mm^3, the animals were allocated at random into test groups of in each case 6 animals.
(§2) To this end, xenografts of human tumours derived from prostate, uterine, lung, pancreatic, bladder and “head and neck” cancers were implanted in nude mice. The implantation and the determination of tumour volumes were carried out as described hereinbefore. Groups of 5 to 8 animals were used. The test substance was administered by ip injection twice weekly in the mentioned doses in the form of the sodium salt as an aqueous solution.
(§3) The tumour xenografts used, the doses used, the duration of the therapy and a classification of observed anti-tumour actions are summarised in Table 2 below.

CXF 280 = CXF 280 colon carcinoma xenograft model; format: in vivo, nude mice
Method: as §1, §2, §3
Subcutaneous implantation of the tumour and the determination of tumour volumes were carried out as described hereinbefore. The test substance was administered by ip injection twice weekly in the mentioned doses in the form of the sodium salt as an aqueous solution, over a period of 4 weeks. Groups of in each case 8 animals were used.

UXF 1138 = assay: Xenograft tumour panel, UXF 1138 (uterus); format: in vivo, nude mice; details: 450-540 mg/kg ip twice weekly, 21 d (control ended early)
Method: as §1, §2, §3

PRXF DU145 = assay: Xenograft tumour panel, PRXF DU145 (prostate); format: in vivo, nude mice; details: 385-590 mg/kg ip twice weekly, 28 d
Method: as §1, §2, §3

Solubility in water = format: physicochemical; details: water, 25 °C, water
MEXF 462 = MEXF 462 melanoma xenograft model; format: in vivo, nude mice; details: for tumour volume in % of the tumour volume at the beginning of the test, Mean: 300 mg/kg ip twice weekly
Method: as §1, with “animals. […]” for “animals.”
The anti-tumour activity of the compounds was determined in the MEXF 462 xenograft tumour model in the nude mouse. Subcutaneous implantation of the tumour and the determination of tumour volumes were carried out as described hereinbefore. Groups of in each case 8 animals were used.
Equimolar amounts of the compound of Example 8 were administered ip twice weekly in the form of a 5% DMSO solution over the mentioned period.
The progression over time of the anti-tumour action, expressed in % of the tumour volume at the beginning of the test, over the period of therapy is shown in Table 3.

Tumour-carrying mice = assay: Nephrological tolerability (kidney post-mortem and histology); format: in vivo
Method: A control group was treated only with the carrier according to a twice weekly treatment scheme.
When the 28-day treatment period had ended, a post-mortem was carried out on the mice. […] The kidneys of all the animals in the test groups were removed by operation, fixed in formalin according to standard methods, embedded in paraffin and processed for HE staining.

HNXF 536 = assay: Xenograft tumour panel, HNXF 536 (head & neck); format: in vivo, nude mice; details: 450-540 mg/kg ip twice weekly, 28 d
Method: as §1, §2, §3

LXFL 529 = assay: Xenograft tumour panel, LXFL 529 (lung); format: in vivo, nude mice; details: 450-540 mg/kg ip twice weekly, 10 d (control ended early)
Method: as §1, §2, §3

MAXF 401 = MAXF 401 breast tumour xenograft in nude mice; format: in vivo
Method: All the tests were carried out using female nude mice under standard conditions for the keeping of animals with controlled illumination and temperature. The animals were given water and food as desired.
as §1, with “The” for “Breast tumours (MAXF 401) were implanted subcutaneously into the rear members of the mice aged 10 weeks. The”
The test compounds (in the form of sodium salts) were dissolved in a saline solution, and 5% Klucel (hydroxypropylcellulose) was added in order to dissolve all the test compounds in the same carrier. […] A volume of 10 ml/kg body weight was injected. Animals that received only the carrier served as control. The test compounds were treated according to the scheme of twice weekly administration over a period of […]. The tumour volume and the body weight were checked twice weekly, and the relative tumour volumes were calculated as the ratio of tumour size to body weight.
On the basis of the relative tumour volumes of the animals treated with the test compounds compared with the tumour volumes of the controls treated only with the carrier, the T/C values were calculated and were used as the index of anti-tumour activity.
Subcutaneous implantation of the tumour and the determination of the tumour volume were carried out as described hereinbefore. The above-mentioned salts of the test substance were administered by ip injection twice weekly in the mentioned doses in the form of an aqueous solution, over a period of 4 weeks. […]
Subcutaneous implantation of the tumour and the determination of tumour volumes were carried out as described hereinbefore. The test substance was administered by ip injection twice weekly in the mentioned doses in the form of the sodium salt as an aqueous solution, over a period of 4 weeks.

MEXF 276 = assay: Xenograft tumour panel, MEXF 276 (melanoma); format: in vivo, nude mice; details: 450-540 mg/kg ip twice weekly, 21 d (control ended early)
BXF 1218 = assay: Xenograft tumour panel, BXF 1218 (bladder); format: in vivo, nude mice; details: 450-540 mg/kg ip twice weekly, 7 d (control ended early); n.s.
Method: as §1, §2, §3

PRXF 22RV1 = assay: Xenograft tumour panel, PRXF 22RV1 (prostate); format: in vivo, nude mice; details: 450-540 mg/kg ip twice weekly, 28 d
Method: as §1, §2, §3

[1] = dose range used (450-540 mg/kg)
[2] = extrapolated, ip twice weekly over 4 weeks
[3] = kidney histology after 28-day twice weekly ip treatment, equimolar to 450 mg of stock composition, affected/animals

Structure (SMILES): CN(C)/N=N/c1ccc(C(=O)c2ccc(OCCC(=O)NCC(=O)[O-])cc2)cc1.[Na+] [Example 2a]
- Max. effect (PAXF 1657): No anti-tumour
- anti-tumour action (CXF 280; 450, 500 or 540 mg/kg ip twice weekly over 4 weeks, all doses): pronounced anti-tumour action
- Max. effect (CXF 280; 450-540 mg/kg ip twice weekly, 28 d, ***): Remission ***
- ED50 (CXF 280; Mus musculus, 672 h, extrapolated, ip twice weekly over 4 weeks): 390 mg/kg
- tolerability (CXF 280; [1]): well tolerated
- weight loss in the animals (CXF 280; [1]): not associated with a significant weight loss
- ED20 (CXF 280; [2]): 330 mg/kg
- ED90 (CXF 280; [2]): 490 mg/kg
- Max. effect (Inhibition) (UXF 1138): Inhibition >50% **
- Max. effect (Inhibition) (PRXF DU145): Inhibition >50% **
- solubility (Solubility in water; 25° C., read-out: solubility in water at 25° C.): 500 mg/mL
- solubility (Solubility in water; room temperature (25° C.), read-out: water solubility at room temperature (25° C.)): 500 mg/mL
- Max. effect (MEXF 462; 100-540 mg/kg ip twice weekly, 28 d, ***): Remission ***
- tumour volume in % of the tumour volume at the beginning of the test, Mean (MEXF 462; day 0): 100%
- tumour volume in % of the tumour volume at the beginning of the test, Mean (MEXF 462; day 3): 316%
- tumour volume in % of the tumour volume at the beginning of the test, Mean (MEXF 462; day 7): 240%
- tumour volume in % of the tumour volume at the beginning of the test, Mean (MEXF 462; day 11): 187%
- tumour volume in % of the tumour volume at the beginning of the test, Mean (MEXF 462; day 14): 166%
- tumour volume in % of the tumour volume at the beginning of the test, Mean (MEXF 462; day 18): 83%
- tumour volume in % of the tumour volume at the beginning of the test, Mean (MEXF 462; day 21): 67%
- tumour volume in % of the tumour volume at the beginning of the test, Mean (MEXF 462; day 25): 40%
- tumour volume in % of the tumour volume at the beginning of the test, Mean (MEXF 462; day 28): 30%
- outcome of treatment (MEXF 462; equimolar doses ip twice weekly over 4 weeks): partial remission
- macroscopic findings of the kidneys at post-mortem (Tumour-carrying mice; after 28-day treatment period): without pathological findings
- Acute single-cell necrosis (Tumour-carrying mice; [3]): 0/9
- Focal tubular necrosis (Tumour-carrying mice; [3]): 0/9
- Max. effect (Inhibition) (HNXF 536): Inhibition <50% **
- Max. effect (Inhibition) (LXFL 529): Inhibition <50% *
- Max. effect (MAXF 401; 300-540 mg/kg ip twice weekly, 28 d, ***): Remission ***
- ED50 (MAXF 401; Mus musculus, MAXF401, 672 h, ip twice weekly over 4 weeks, read-out: ED50 of the anti-tumour action): 450 mg/kg
- effect at the highest dose (MAXF 401; highest dose, ip twice weekly over 4 weeks): remission of the tumours
- ED90 of the anti-tumour action (MAXF 401; ip twice weekly over 4 weeks): 500 mg/kg
- threshold dose of the anti-tumour action (MAXF 401; ip twice weekly over 4 weeks): 300 mg/kg
- Max. effect (Inhibition) (MEXF 276): Inhibition >50% ***
- Max. effect (Inhibition) (BXF 1218): Inhibition <50% n.s.
- Max. effect (Inhibition) (PRXF 22RV1): Inhibition <50% **
